# Laboratory results from ChEMBL document CHEMBL4007501, “Synthesis and antitumor evaluation of 2,3-diarylbenzofuran derivatives on HeLa cells” (Bioorg Med Chem Lett, 2017).
# Active and inactive are the calls of the source. The calls are words filed in the database; no cut-off is given here.
# Legend:
# HeLa [1] = assay: Cytotoxicity against human HeLa cells assessed as decrease in cell viability after 48 hrs by MTT assay; format: functional, cell-based
# HeLa [2] = assay: Downregulation of Bcl-2 expression in human HeLa cells at 10 to 30 uM after 24 hrs by Western blot method; format: functional, cell-based
# HeLa [3] = assay: Cell cycle arrest in human HeLa cells assessed as accumulation at G2 phase at 20 uM after 48 hrs by propidium iodide staining-based flow cytometric analysis (reference value: 4.45%); format: functional
# HeLa [4] = assay: Cell cycle arrest in human HeLa cells assessed as accumulation at G2 phase at 10 uM after 48 hrs by propidium iodide staining-based flow cytometric analysis (reference value: 4.45%); format: functional
# HeLa [5] = assay: Downregulation of Bcl-xL expression in human HeLa cells at 10 to 30 uM after 24 hrs by Western blot method; format: functional, cell-based
# HeLa [6] = assay: Induction of apoptosis in human HeLa cells assessed as early apoptotic cells at 20 uM after 24 hrs by annexin V/FITC-propidium iodide staining-based flow cytometric method (reference value: 1.76%); format: functional
# HeLa [7] = assay: Cell cycle arrest in human HeLa cells assessed as accumulation at G1 phase at 30 uM after 48 hrs by propidium iodide staining-based flow cytometric analysis (reference value: 66.35%); format: functional
# HeLa [8] = assay: Cell cycle arrest in human HeLa cells assessed as accumulation at S phase at 10 uM after 48 hrs by propidium iodide staining-based flow cytometric analysis (reference value: 29.20%); format: functional
# HeLa [9] = assay: Induction of apoptosis in human HeLa cells assessed as late apoptotic cells at 20 uM after 24 hrs by annexin V/FITC-propidium iodide staining-based flow cytometric method (reference value: 0.987%); format: functional
# HeLa [10] = assay: Cell cycle arrest in human HeLa cells assessed as accumulation at G1 phase at 20 uM after 48 hrs by propidium iodide staining-based flow cytometric analysis (reference value: 66.35%); format: functional
# HeLa [11] = assay: Cell cycle arrest in human HeLa cells assessed as accumulation at S phase at 20 uM after 48 hrs by propidium iodide staining-based flow cytometric analysis (reference value: 29.20%); format: functional
# HeLa [12] = assay: Induction of apoptosis in human HeLa cells assessed as viable cells at 20 uM after 24 hrs by annexin V/FITC-propidium iodide staining-based flow cytometric method (reference value: 95.4%); format: functional; conditions: read-out: Activity
# HeLa [13] = assay: Induction of apoptosis in human HeLa cells assessed as late apoptotic cells at 10 uM after 24 hrs by annexin V/FITC-propidium iodide staining-based flow cytometric method (reference value: 0.987%); format: functional
# HeLa [14] = assay: Cytotoxicity against human HeLa cells assessed as decrease in cell viability at 10 uM after 48 hrs by MTT assay relative to control; format: functional
# HeLa [15] = assay: Upregulation of Bim expression in human HeLa cells at 10 to 30 uM after 24 hrs by Western blot method; format: functional, cell-based
# HeLa [16] = assay: Induction of apoptosis in human HeLa cells assessed as necrotic cells at 20 uM after 24 hrs by annexin V/FITC-propidium iodide staining-based flow cytometric method (reference value: 1.81%); format: functional
# HeLa [17] = assay: Induction of apoptosis in human HeLa cells assessed as viable cells at 30 uM after 24 hrs by annexin V/FITC-propidium iodide staining-based flow cytometric method (reference value: 95.4%); format: functional; conditions: read-out: Activity
# HeLa [18] = assay: Induction of apoptosis in human HeLa cells assessed as late apoptotic cells at 30 uM after 24 hrs by annexin V/FITC-propidium iodide staining-based flow cytometric method (reference value: 0.987%); format: functional
# HeLa [19] = assay: Cell cycle arrest in human HeLa cells assessed as accumulation at S phase at 30 uM after 48 hrs by propidium iodide staining-based flow cytometric analysis (reference value: 29.20%); format: functional
# HeLa [20] = assay: Induction of apoptosis in human HeLa cells assessed as necrotic cells at 30 uM after 24 hrs by annexin V/FITC-propidium iodide staining-based flow cytometric method (reference value: 1.81%); format: functional
# HeLa [21] = assay: Cytotoxicity against human HeLa cells assessed as decrease in cell viability at 20 uM after 48 hrs by MTT assay relative to control; format: functional
# HeLa [22] = assay: Cell cycle arrest in human HeLa cells assessed as accumulation at G2 phase at 30 uM after 48 hrs by propidium iodide staining-based flow cytometric analysis (reference value: 4.45%); format: functional
# HeLa [23] = assay: Induction of apoptosis in human HeLa cells assessed as early apoptotic cells at 10 uM after 24 hrs by annexin V/FITC-propidium iodide staining-based flow cytometric method (reference value: 1.76%); format: functional
# HeLa [24] = assay: Induction of apoptosis in human HeLa cells assessed as viable cells at 10 uM after 24 hrs by annexin V/FITC-propidium iodide staining-based flow cytometric method (reference value: 95.4%); format: functional; conditions: read-out: Activity
# HeLa [25] = assay: Induction of apoptosis in human HeLa cells assessed as early apoptotic cells at 30 uM after 24 hrs by annexin V/FITC-propidium iodide staining-based flow cytometric method (reference value: 1.76%); format: functional
# HeLa [26] = assay: Cell cycle arrest in human HeLa cells assessed as accumulation at G1 phase at 10 uM after 48 hrs by propidium iodide staining-based flow cytometric analysis (reference value: 66.35%); format: functional
# HeLa [27] = assay: Upregulation of Bak expression in human HeLa cells at 10 to 30 uM after 24 hrs by Western blot method; format: functional, cell-based
# HeLa [28] = assay: Induction of apoptosis in human HeLa cells assessed as necrotic cells at 10 uM after 24 hrs by annexin V/FITC-propidium iodide staining-based flow cytometric method (reference value: 1.81%); format: functional
# P388 = assay: Cytotoxicity against mouse P388 cells assessed as growth inhibition; format: functional, cell-based
# HepG2 = assay: Cytotoxicity against human HepG2 cells assessed as decrease in cell viability by MTT assay; format: functional, cell-based
# MCF7 = assay: Cytotoxicity against human MCF7 cells assessed as decrease in cell viability by MTT assay; format: functional, cell-based
smiles,measurement,setting,value
Oc1ccc(-c2oc3cc(O)ccc3c2-c2ccc(O)cc2O)cc1,IC50,HeLa [1],32 µM
Oc1ccc(-c2c(-c3ccc(Cl)cc3)oc3cc(O)ccc23)c(O)c1,IC50,HeLa [1],32.7 µM
Cc1ccccc1-c1oc2cc(O)ccc2c1-c1ccc(O)cc1O,IC50,HeLa [1],47.5 µM
Cc1cccc(-c2oc3cc(O)ccc3c2-c2ccc(O)cc2O)c1,Activity,HeLa [2],Active
same,Activity,HeLa [3],6.31%
same,Activity,HeLa [4],7.56%
same,Activity,HeLa [5],Active
same,Activity,HeLa [6],8.57%
same,Activity,HeLa [7],61.08%
same,Activity,HeLa [8],21.56%
same,Activity,HeLa [9],18.9%
same,Activity,HeLa [10],63.54%
same,IC50,HeLa [1],13.4 µM
same,Activity,HeLa [11],30.15%
same,viability at 20 µM,HeLa [12],69.5%
same,Activity,HeLa [13],7.26%
same,Activity,HeLa [14],30%
same,Activity,HeLa [15],Active
same,Activity,HeLa [16],3.08%
same,viability at 30 µM,HeLa [17],42.1%
same,Activity,HeLa [18],36.2%
same,Activity,HeLa [19],31.82%
same,Activity,HeLa [20],11.5%
same,Activity,HeLa [21],65%
same,Activity,HeLa [22],7.1%
same,Activity,HeLa [23],8.05%
same,viability at 10 µM,HeLa [24],82.7%
same,Activity,HeLa [25],10.3%
same,Activity,HeLa [26],70.88%
same,Activity,HeLa [27],Active
same,Activity,HeLa [28],1.97%
O=C1c2c(O)cc(O)cc2-c2c(-c3ccc(O)cc3)oc3cc(O)cc1c23,IC50,P388,13.2 µM
Oc1ccc(-c2c(-c3ccccc3)oc3cc(O)ccc23)c(O)c1,IC50,HeLa [1],29.7 µM
COc1cccc(-c2c(-c3ccccc3)oc3c(OC)cccc23)c1O,IC50,HeLa [1],57.8 µM
Cc1ccc(-c2oc3cc(O)ccc3c2-c2ccc(O)cc2O)cc1,IC50,HeLa [1],29.2 µM
Oc1ccc(-c2c(-c3ccccc3Br)oc3cc(O)ccc23)c(O)c1,IC50,HeLa [1],> 100 µM
Oc1ccc(-c2c(-c3cccnc3)oc3cc(O)ccc23)c(O)c1,IC50,HeLa [1],19.9 µM
COc1cccc(-c2oc3cc(O)ccc3c2-c2ccc(O)cc2O)c1,IC50,HeLa [1],29.9 µM
COc1ccc(-c2oc3cc(O)ccc3c2-c2ccc(O)cc2O)cc1,IC50,HeLa [1],13.7 µM
CC[C@@]1(O)C(=O)OCc2c1cc1n(c2=O)Cc2cc3cc(O)ccc3nc2-1 [HYDROXYCAMPTOTHECIN],IC50,HeLa [1],10 µM
COc1ccc(/C=C/c2cc(OC)c3c(-c4cc(OC)cc(OC)c4)c(-c4ccc(OC)cc4)oc3c2)cc1,IC50,HepG2,0.24 µM
same,IC50,MCF7,0.85 µM
COc1ccc(-c2c(-c3ccccc3)oc3cc(OC)ccc23)c(O)c1,IC50,HeLa [1],28.9 µM
Oc1ccc(-c2c(-c3ccc(Br)cc3)oc3cc(O)ccc23)c(O)c1,IC50,HeLa [1],36.7 µM
Oc1ccc(-c2c(-c3cccc(Br)c3)oc3cc(O)ccc23)c(O)c1,IC50,HeLa [1],26.9 µM
Oc1ccc(-c2c(-c3ccc4ccccc4c3)oc3cc(O)ccc23)c(O)c1,IC50,HeLa [1],21.2 µM
Oc1ccc(-c2c(-c3ccc(F)cc3)oc3cc(O)ccc23)c(O)c1,IC50,HeLa [1],28.3 µM
